From patent US20260224462A1, “ANTI-AGING COMPOSITION” (MITSUBISHI CORPORATION LIFE SCIENCES LIMITED, priority 2023, published 2026)

How the values were obtained:
Assay type in all cases: cell-based
Normal human fibroblasts [1] = assay: Suppression of decrease in hyaluronic acid production capability due to aging induction, fibroblasts (ELISA); details: 50 μM or 100 μM, 0.5 mM hydrogen peroxide; for amount of hyaluronic acid compared with test section of only aging induction: 24 h, ELISA, p<0.05, FIG. 3; for hyaluronic acid production capability compared with test sections that did not induce aging: no significant difference between the two groups, FIG. 3
Procedure: Normal human fibroblasts were seeded in 24 well plates (8.0×10^4 cells/well, N=3) and precultured for 24 hours (5% CO2, 37° C.). As a medium, MEM-α, nucleosides medium (Gibco) containing fetal bovine serum (10% of serum-free medium was externally added) was used. Thereafter, the wells were washed once with PBS (−), then replaced with MEM-α, nucleoside medium containing fetal bovine serum (5% of serum-free medium was externally added) dissolved so that the final concentration of Sample 1 or Sample 2 was 50 μM or 100 μM, and further incubated for 30 minutes. Thereafter, fibroblasts were treated with a medium adjusted so that the final concentration of hydrogen peroxide was 0.5 mM to induce aging. Thereafter, the culture medium was changed to MEM-α, nucleoside medium containing fetal bovine serum (5% of serum-free culture medium was externally added) and incubated for 24 hours, and then the amount of hyaluronic acid was quantified by ELISA using a hyaluronic acid quantification kit (Cosmo Bio Inc.).
The hyaluronic acid production amount in each test section was shown as a relative value when the hyaluronic acid production amount in each sample and the test section in which aging induction was not performed was taken as 100. Regarding the hyaluronic acid production amount, a significant difference test (t-test, two-tailed) between the two groups of the test section for Sample 1 and the test section for which only the aging induction was performed respectively, and a significant difference test between the test section for Sample 2 and the test section for which only the aging induction was performed were each performed, and “*(p<0.05)” was marked for those in which a significant difference was recognized.

[2] = tested on: Normal human epidermal keratinocytes; assay: Suppression of decrease in hyaluronic acid production capability due to aging induction, keratinocytes (ELISA); details: 50 μM, 0.5 mM hydrogen peroxide
Procedure: Normal human epidermal keratinocytes were seeded in 24 well plates (1.0×10^5 cells/well, N=3) and precultured for 24 hours (5% CO2, 37° C.). As a medium, a commercially available keratinocyte growth medium (PromoCell) was used. Thereafter, the wells were washed once with PBS (−), then replaced with a keratinocyte growth medium dissolved so that the final concentration of Sample 1 was 50 μM, and further incubated for 30 minutes. Thereafter, normal human epidermal keratinocytes were treated with a medium adjusted to have a final concentration of hydrogen peroxide of 0.5 mM to induce aging. Thereafter, the medium was replaced with a new keratinocyte growth medium and incubated for 24 hours, and then the amount of hyaluronic acid was quantified by an ELISA method using a hyaluronic acid quantification kit (Cosmo Bio). For comparison, a test section not treated with oxidized glutathione trisulfide was provided.
The hyaluronic acid production amount in each of the test sections was shown as a relative value when the hyaluronic acid production amount in the test section in which neither oxidized glutathione trisulfide treatment nor aging induction was performed was taken as 100. […]

Normal human fibroblasts [3] = assay: Suppression of decrease in proliferation capability of aging-induced normal human fibroblasts (MTT assay); details: 50 μM or 100 μM, aging induced with 0.5 mM hydrogen peroxide; compared with only aging induction and with 100 μM reduced glutathione; p<0.005; FIG. 1
Procedure: Normal human fibroblasts were seeded in 96 well plates (3.0×10^3 cells/well, N=3) and precultured for 24 hours (5% CO2, 37° C.). As a medium, MEM-α, nucleosides medium (Gibco) containing fetal bovine serum (10% of serum-free medium was externally added) was used. Thereafter, the wells were washed once with PBS (−), then replaced with MEM-α, nucleoside medium containing fetal bovine serum (5% of serum-free medium was externally added) dissolved so that the final concentration of Sample 1 or Sample 2 was 50 μM or 100 μM, and further incubated for 30 minutes. Thereafter, fibroblasts were treated with a medium adjusted so that the final concentration of hydrogen peroxide was 0.5 mM to induce aging. Thereafter, an MTT assay was performed according to a conventional method, and the survival rate of fibroblasts was calculated as a relative value when the survival rate of cells in the test section in which neither treatment nor aging induction was performed was taken as 100.
For comparison, a test section in which only aging induction was performed and a test section in which reduced glutathione was 100 μM was set instead of Sample 1. […]

B16 mouse melanoma cells = assay: Melanin production suppression test in cultured cells; details: FIG. 5; for melanin production amount compared with the reference sample (absorbance at 405 nm): 0.02 mM or 0.05 mM at melanin induction with α-MSH 200 nM, p<0.01; for concentration needed for melanin production suppressing effect compared with kojic acid (1 mM) and reduced glutathione (3 mM): 0.02 mM or 0.05 mM of sample
Procedure: B16 mouse melanoma cells were seeded in a 6 well plate (2.0×10^4 cells/well), and cultured for 24 hours in D-MEM medium to which 5% fetal bovine serum was added with respect to the medium (5% CO2, 37° C.). […] The obtained pellets were washed twice with PBS (−), 150 μL of a 1 M sodium hydroxide solution was then added, and the mixture was treated at 100° C. for 10 minutes to dissolve the pellets, thereby preparing a reference sample. […] One hundred μL of a sample of each test section was added to a 96 well plate, and the absorbance at 405 nm was measured with a microplate reader (n=3). […] The significant difference test was performed on the measured value of the reference sample by the Dunnett method (*p<0.05, **p<0.01.).

[4] = tested on: Normal human epidermal keratinocytes; assay: Suppression of decrease in proliferation capability of aging-induced normal human epidermal keratinocytes (MTT assay); details: 50 μM or 100 μM, aging induced with 0.5 mM hydrogen peroxide; compared with only aging induction; FIG. 2
Procedure: Normal human epidermal keratinocytes were seeded in 96 well plates (1.0×10^4 cells/well, N=3) and precultured for 24 hours (5% CO2, 37° C.). As a medium, a commercially available keratinocyte growth medium (PromoCell) was used. Thereafter, the wells were washed once with PBS (−), then replaced with a keratinocyte growth medium dissolved so that the final concentration of Sample 1 was 50 μM or 100 μM, and further incubated for 30 minutes. […] Thereafter, an MTT assay was performed according to a conventional method, and the survival rate of normal human epidermal keratinocytes was calculated as a relative value when the survival rate of cells in a test section in which neither the treatment with oxidized glutathione trisulfide nor the aging induction was performed was taken as 100. For comparison, a test section in which only aging induction was performed without treatment with oxidized glutathione trisulfide was set. Regarding the survival rate, a significant difference test (t-test, two-tailed) between the two groups of the test section of Sample 1 and the test section in which only aging induction was performed was performed respectively.

[5] = biological target: T1, tyrosinase derived from B16 mouse melanoma cells (Mus musculus, UniProt P11344); assay: Tyrosinase activity suppression test; details: 0.05 mM or 0.1 mM at melanin induction; L-DOPA, absorbance at 490 nm corrected by protein concentration; FIG. 6
T1 construct: a protein extract containing tyrosinase derived from B16 mouse melanoma cells; endogenous in cells; host or cells: B16 mouse melanoma cells, alpha-MSH induced
T1 sequence (P11344 19-533): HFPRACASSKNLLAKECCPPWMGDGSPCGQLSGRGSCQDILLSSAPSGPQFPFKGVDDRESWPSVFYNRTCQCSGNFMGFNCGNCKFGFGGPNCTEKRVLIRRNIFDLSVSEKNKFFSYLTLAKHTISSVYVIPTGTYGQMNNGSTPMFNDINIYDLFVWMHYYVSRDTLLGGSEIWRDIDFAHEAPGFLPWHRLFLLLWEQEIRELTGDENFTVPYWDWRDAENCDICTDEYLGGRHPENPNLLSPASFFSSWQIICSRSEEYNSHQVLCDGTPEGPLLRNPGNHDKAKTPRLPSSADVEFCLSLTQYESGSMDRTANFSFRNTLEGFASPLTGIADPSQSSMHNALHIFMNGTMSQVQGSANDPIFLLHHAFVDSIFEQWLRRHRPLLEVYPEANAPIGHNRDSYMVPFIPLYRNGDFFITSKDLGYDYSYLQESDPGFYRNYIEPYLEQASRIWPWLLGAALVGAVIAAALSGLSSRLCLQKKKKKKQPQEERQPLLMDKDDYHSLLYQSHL
Procedure: The tyrosinase activity inhibitory effect can be known by comparing the value of the absorbance at 490 nm corrected by the protein concentration measured by adding the test substance at the time of melanin induction and the same operation with the value of the test section to which the test substance is not added.
B16 mouse melanoma cells were seeded in a 6 well plate (2.0×10^4 cells/well), and cultured for 24 hours in D-MEM medium to which 5% fetal bovine serum was added with respect to the medium (5% CO2, 37° C.). Thereafter, α-MSH (final concentration: 200 nM) was added, and the cells were cultured in a serum-free D-MEM medium for 24 hours to induce melanin. […] The protein concentration of the obtained sample was measured by the BCA method.
The same operation was performed except that melanin induction was not performed, and a reference sample was obtained. […] Fifty μL of a sample of each test section was placed in a 96 well plate (n=3), 50 μL of 0.8 mg/mL L-DOPA was added, the mixture was reacted at 37° C. for 1 hour, and then the absorbance at 490 nm was measured with a microplate reader. The absorbance was corrected by the protein concentration, and the relative value of each test section was calculated when the measured value of the reference sample was 100. […]

N[C@@H](CCC(=O)N[C@@H](CSSSC[C@H](NC(=O)CC[C@H](N)C(=O)O)C(=O)NCC(=O)O)C(=O)NCC(=O)O)C(=O)O [Sample 1, oxidized glutathione trisulfide]
amount of hyaluronic acid compared with test section of only aging induction (Normal human fibroblasts [1]): significantly higher
hyaluronic acid production capability compared with test sections that did not induce aging (Normal human fibroblasts [1]): same hyaluronic acid production capability
amount of hyaluronic acid compared with test section of only aging induction ([2]; 24 h, ELISA, p<0.05, FIG. 4): significantly higher
hyaluronic acid production capability compared with control group in which aging is not induced ([2]; no significant difference between the two groups, FIG. 4): same hyaluronic acid production capability
cell proliferation rate (survival rate of fibroblasts, MTT, relative value) (Normal human fibroblasts [3]): significant cell proliferation rate
melanin production amount compared with the reference sample (absorbance at 405 nm) (B16 mouse melanoma cells): significantly low
concentration needed for melanin production suppressing effect compared with kojic acid (1 mM) and reduced glutathione (3 mM) (B16 mouse melanoma cells; α-MSH 200 nM): exhibited a melanin production suppressing effect at a lower concentration
cell proliferation rate (survival rate of keratinocytes, MTT, relative value) [4]: significant cell proliferation rate
tyrosinase activity compared with test section in which only melanin induction was performed [5]: significantly lower
tyrosinase activity compared with the reference sample (no melanin induction) [5]: same degree of tyrosinase activity as the reference sample

CC(=O)N[C@@H](CSSSC[C@H](NC(C)=O)C(=O)O)C(=O)O [Sample 2, oxidized NAC trisulfide]
amount of hyaluronic acid compared with test section of only aging induction (Normal human fibroblasts [1]): significantly higher
hyaluronic acid production capability compared with test sections that did not induce aging (Normal human fibroblasts [1]): The same result was obtained
cell proliferation rate (survival rate of fibroblasts, MTT, relative value) (Normal human fibroblasts [3]): significant cell proliferation rate
melanin production amount compared with the reference sample (absorbance at 405 nm) (B16 mouse melanoma cells): significantly low
concentration needed for melanin production suppressing effect compared with kojic acid (1 mM) and reduced glutathione (3 mM) (B16 mouse melanoma cells; α-MSH 200 nM): melanin production can be suppressed at a lower concentration

N[C@@H](CCC(=O)N[C@@H](CS)C(=O)NCC(=O)O)C(=O)O [reduced glutathione, reference compound]
melanin production suppressing effect compared with 0.02 mM test section of Sample 1 (B16 mouse melanoma cells; reduced glutathione final concentration 3 mM, α-MSH 200 nM): same melanin production suppressing effect
